According to patent US20260083743A1, “NUCLEOSIDE DERIVATIVE FOR PREVENTING AND TREATING INFLAMMATION AND APPLICATION THEREOF” (WEST CHINA HOSPITAL OF SICHUAN UNIVERSITY, priority 2019, published 2026):

Experiments:
C57 mice = experiment: Toxicity test, 180 consecutive days by gavage in C57 mice; format: in vivo; conditions: 100 mg/kg/D for 180 consecutive days by gavage
Method: In this example, the toxicities of compounds 1-19 prepared in example 1 were analyzed.
C57 mice were given compounds 1-19 at a dose of 100 mg/kg/D for 180 consecutive days by gavage. One hour after the last administration of the drug, the mice were anesthetized by intraperitoneal injection of sodium pentobarbital (40 mg/kg), placed on a constant temperature hot plate at 37±1° C., blood was taken by cardiac puncture or pathological sections were made to detect the side effects (gastrointestinal reaction, nervous system toxicity, hematological toxicity, allergic reaction, nephrotoxicity, hepatotoxicity, rash and asthma) The side effects of aspirin, ibuprofen, indomethacin, phenylbutazone, diclofenac, piroxicam and glucocorticoid groups were investigated according to the same administration method as compounds 1-19.

[1] = test system: sodium taurocholate-induced pancreatitis model; experiment: Improvement effect on pancreatitis, sodium taurocholate-induced model in mice; format: in vivo, Blab/c mice; parameters: Pancreatic histopathological injury score: scale not given here; conditions: 17.5 mg/kg caudal vein 1 h, 3 h and 6 h after model construction; after 24 hours; n = 10
Text: In this example, the improvement effect of compounds 1 19 prepared in example 1 on […] measured. (1) Animals: Adult and Healthy Male Blab/c Mice, 25 30 g. […] A model was made with sodium taurocholate. […] After anesthesia, the surgical site was sterilized with an alcohol cotton ball. The sterile gauze was placed on the surgical site. A laparotomy was made at the width of two fingers under the xiphoid process. After seeing the liver, an incision was made, the cotton swab soaked in normal saline was stretched into the enterocoelia, the duodenum was sought on the back of the liver, turned out and placed on the sterile gauze, the pancreaticobiliary duct and duodenal papilla were sought, and the needle of 1 mL syringe was used to pierce a hole on the along the direction of the nipple, a 24 G indwelling needle tube was inserted into the pancreatic duct along the nipple, and the common bile duct below the liver was closed with an arterial vascular clip, with a dose of 0.1 mL/100 g and 0.1 mL/min inject sodium taurocholate with a concentration of 3.8% at a flow rate. During this process, pay attention to adding saline to the exposed pancreas and duodenum to keep it moist. After the injection, the tube was slowly taken out and the bile duct was continued to be closed. The main tube was removed from the vascular artery clip 3 minutes later, the duodenum was also accommodated, and the abdominal cavity was sutured in double layers. The blank control group was injected with equal volume of isotonic saline. […] The blank control group and the model control group were given equal volume of isotonic saline. After 24 hours, pancreatic tissue and blood samples were taken, and the pancreatic histopathological injury score and the level of pancreatic amylase in serum were evaluated.

arthritis model = experiment: Improvement effect on arthritis, sodium iodoacetate knee joint model in SD rats; format: in vivo; parameters: Pathological tissue score (joint): scale not given here; conditions: gavage every day 100 mg/kg/d; 4th week after operation; n = 10
Method: In this example, the improvement effect of compounds 1˜19 prepared in example 1 on arthritic was measured. (1) Animals: SD rats, four rates in one cage, were fed under the conditions of constant temperature (25±2° C.) and illumination control (12 h day/night circulation). The animals were fed with standard feed, and fed for at least 7 days to adapt environment before the experiment. […] (3) SD rats were fasted for 12 hours before operation, and weighed and recorded prior to operation. The blank control group was not treated any more. […] After anesthesia, they were fixed in the supine position. 0.1 ml of 1 g/L sodium iodoacetate solution was injected into the knee joint. From the fifth day, the animals were driven to run for 30 minutes every day, and they were allowed to move freely in the cage the rest of the time. After modeling, indomethacin and compounds 1˜19 were given by gavage every day at the dose of 100 mg/kg/d. The blank control group and the model control group were given equal volume of isotonic saline. At the 4th week after operation, the articular fluid of rats in each group was extracted to measure the content of MMP-13. The rats were killed, and the subchondral bone plate of the inner condyle of the tibia of the right knee was cut and processed into specimens, and pathological scores were made.

mouse hepatitis model = experiment: Improvement effect on hepatitis, concanavalin A (ConA) mouse hepatitis model; format: in vivo, Blab/c mice; conditions: gavage 50 mg/kg, n = 10
Method: In this example, the improvement effect of compounds 1 19 prepared in example 1 on […] measured. (1) Animals: Adult and Healthy Male Blab/c Mice, 25 30 g. […] The blank control group was injected with equal volume of isotonic saline. After modeling, indomethacin and compounds 1 19 were given by gavage every day at the dose of 50 mg/kg. The blank control group and the model control group were given equal volume of isotonic saline. Eyeball blood and liver tissue were taken at 6 h, 12 h, 24 h and 48 h after administration. The levels of serum alanine aminotransferase (ALT) and aspartate aminotransferase (AST) were measured.

Structure (SMILES)	Occurrence rate of side effects (C57 mice) [%]	Amylopsin (pancreatic amylase level in serum) [1] [KU/L]	Pancreatic histopathological injury score [1]	MMP-13 content in joint fluid (arthritis model) [mg/L]	Pathological tissue score (joint) (arthritis model)	Aspartate aminotransferase (AST) (mouse hepatitis model; 6 h after administration) [U/L]	Serum alanine aminotransferase (ALT) (mouse hepatitis model; 6 h after administration) [U/L]	Aspartate aminotransferase (AST) (mouse hepatitis model; 12 h after administration) [U/L]	Serum alanine aminotransferase (ALT) (mouse hepatitis model; 12 h after administration) [U/L]	Aspartate aminotransferase (AST) (mouse hepatitis model; 24 h after administration) [U/L]	Serum alanine aminotransferase (ALT) (mouse hepatitis model; 24 h after administration) [U/L]	Aspartate aminotransferase (AST) (mouse hepatitis model; 48 h after administration) [U/L]	Serum alanine aminotransferase (ALT) (mouse hepatitis model; 48 h after administration) [U/L]
CC(=O)Oc1ccccc1C(=O)O [Aspirin, aspirin]	20												
CCCCC1C(=O)N(c2ccccc2)N(c2ccccc2)C1=O [Baotaisong, phenylbutazone]	20												
CNCCn1c(=O)c2c(ncn2C)n(C)c1=O [Compound 11, 1-(2-methylaminoethyl)-3,7-dimethylxanthine]		5 ± 3	0.5 ± 0.2	86 ± 5	0.3 ± 0.3	48 ± 7	54 ± 6	89 ± 8	92 ± 9	112 ± 12	142 ± 14	95 ± 9	110 ± 13
CCNCCn1c(=O)c2c(ncn2C)n(C)c1=O [Compound 12, 1-(2-ethylaminoethyl)-3,7-dimethylxanthine]		4 ± 2	0.4 ± 0.5	83 ± 8	0.3 ± 0.4	58 ± 7	76 ± 8	93 ± 9	113 ± 12	121 ± 19	162 ± 16	102 ± 9	121 ± 13
CC(C)NCCn1c(=O)c2c(ncn2C)n(C)c1=O [Compound 13, 1-(2-isopropylaminoethyl)-3,7-dimethylxanthine]		6 ± 2	1.8 ± 0.2	98 ± 5	0.3 ± 0.5	63 ± 7	87 ± 9	102 ± 12	121 ± 13	132 ± 13	172 ± 17	93 ± 9	143 ± 12
CCCNCCn1c(=O)c2c(ncn2C)n(C)c1=O [Compound 14, 1-(2-propylaminoethyl)-3,7-dimethylxanthine]		5 ± 3	1.9 ± 0.4	93 ± 7	0.7 ± 0.3	65 ± 7	56 ± 8	93 ± 12	134 ± 15	152 ± 15	193 ± 12	119 ± 12	132 ± 13
CC(=O)CCn1c(=O)c2c(ncn2C)n(C)c1=O [Compound 15, 1-(2-acetylethyl)-3,7-dimethylxanthine]		5 ± 4	1.6 ± 0.4	91 ± 7	0.6 ± 0.5	65 ± 7	65 ± 8	118 ± 18	171 ± 15	198 ± 18	218 ± 26	129 ± 9	132 ± 12
CCC(=O)CCn1c(=O)c2c(ncn2C)n(C)c1=O [Compound 16, 1-(2-propionylethyl)-3,7-dimethylxanthine]		5 ± 2	1.8 ± 0.3	93 ± 9	0.4 ± 0.3	59 ± 7	61 ± 8	93 ± 11	101 ± 16	121 ± 12	132 ± 12	103 ± 9	104 ± 13
CC(C)C(=O)NCCn1c(=O)c2c(ncn2C)n(C)c1=O [Compound 17]		10 ± 3	1.5 ± 0.4	99 ± 6	0.5 ± 0.5	65 ± 5	79 ± 8	102 ± 12	145 ± 13	119 ± 12	163 ± 16	107 ± 11	142 ± 15
CCCC(=O)CCn1c(=O)c2c(ncn2C)n(C)c1=O [Compound 18, 1-(2-butyrylethyl)-3,7-dimethylxanthine]		9 ± 2	1.3 ± 0.4	91 ± 8	0.5 ± 0.3	54 ± 7	67 ± 8	98 ± 8	106 ± 11	131 ± 8	157 ± 15	117 ± 9	121 ± 13
CC(C)n1c(=O)[nH]cc(F)c1=O [Compound 19, 3-isopropyl-5-fluorouracil]		8 ± 2	1.0 ± 0.3	89 ± 6	0.3 ± 0.2	57 ± 7	55 ± 6	92 ± 8	87 ± 6	117 ± 9	139 ± 12	101 ± 9	111 ± 13
O=C(O)Cc1ccccc1Nc1c(Cl)cccc1Cl [Diclofenac, diclofenac]	20												
CC(C)Cc1ccc(C(C)C(=O)O)cc1 (centres unmarked) [Ibuprofen, ibuprofen]	20												
CN1C(C(=O)Nc2ccccn2)=C(O)c2ccccc2S1(=O)=O [Piroxicam, piroxicam]	20												
